# No end group written: not given here.
# Tests used:
# [1] = target: Bcl-XL (Homo sapiens, UniProt Q07817); test: Fluorescence polarisation, Kd of peptide with GST-Bcl-XL; assay type: binding; details: 15 nM peptide labelled with fluorescein at the N-terminal end; GST-Bcl-XL 1 nM to 5 μM; pH 7.4; FIG. 2; read-out: Kd obtained with Bcl-XL
# Procedure: (§1) 2) Fluorescence Polarisation: Determination of the Kd of the Interaction Between the Peptide Obtained in Example 1 and the Anti-Apoptotic Protein
# (§2) A 15 nM solution of the peptide obtained in Example 1 labelled with fluorescein at the N-terminal end is mixed with a solution containing the fusion protein GST-Bcl-XL or GST-Bcl-W at a concentration varying from 1 nM to 5 μM in a buffer containing Na2HPO4 20 mM pH 7.4, EDTA 1 mM, NaCl 50 mM, pluronic acid F-68 0.05%. The fluorescence polarisation is then measured by the En Vision apparatus (Packard Perkin-Elmer).
# [2] = target: T1, Bcl-W (Homo sapiens, UniProt Q92843); test: Fluorescence polarisation, Kd of peptide with GST-Bcl-W; assay type: binding; details: 15 nM peptide labelled with fluorescein at the N-terminal end; GST-Bcl-W 1 nM to 5 μM; pH 7.4; FIG. 3; read-out: Kd obtained with Bcl-W
# T1 sequence (Q92843 1-193): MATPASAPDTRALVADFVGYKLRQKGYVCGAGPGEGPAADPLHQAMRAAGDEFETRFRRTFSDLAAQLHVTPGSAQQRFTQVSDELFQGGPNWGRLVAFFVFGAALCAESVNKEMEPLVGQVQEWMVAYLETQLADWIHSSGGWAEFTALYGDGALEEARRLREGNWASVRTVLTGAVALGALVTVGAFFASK
# Procedure: as §1, §2
# Chain of Bcl-XL (Q07817 whole entry, species assumed): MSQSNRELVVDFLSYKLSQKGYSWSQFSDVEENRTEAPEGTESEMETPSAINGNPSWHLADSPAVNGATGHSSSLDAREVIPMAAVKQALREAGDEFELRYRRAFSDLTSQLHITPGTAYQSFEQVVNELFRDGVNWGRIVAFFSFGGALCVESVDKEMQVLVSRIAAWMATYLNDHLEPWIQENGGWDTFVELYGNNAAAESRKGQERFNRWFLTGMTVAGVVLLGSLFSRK
sequence,measurement,setting,value
DTRRSMVFARHLREVGDEFRSR [peptide obtained in Example 1],Kd,[1],215 nM
same,Kd,[2],411 nM

# Reference: patent publication US7459434B2, “Peptide interacting with anti-apoptotic proteins of the Bcl-2 family” (Les Laboratories Servier, priority 2003, dated 2008)
